Measurements from PubChem BioAssay (NCI).
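Five concentrations, 48 hours, 96-well plates. Definition used: TGI = concentration required for complete inhibition of growth.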

What was measured:
Experiment in all cases: DTP human tumour cell line panel, 48 h
HCT-116 colon = system: HCT-116 colon
MCF7 breast = system: MCF7 breast
HOP-62 NSCLC = system: HOP-62 NSCLC
MDA-MB-231 breast = system: MDA-MB-231 breast
KM12 colon = system: KM12 colon
OVCAR-8 ovarian = system: OVCAR-8 ovarian
SNB-75 CNS = system: SNB-75 CNS
SW-620 colon = system: SW-620 colon
MALME-3M melanoma = system: MALME-3M melanoma
NCI-H226 lung = system: NCI-H226 lung
A498 renal = system: A498 renal
MDA-MB-435 = system: MDA-MB-435
IGROV1 ovarian = system: IGROV1 ovarian
SK-MEL-2 melanoma = system: SK-MEL-2 melanoma
K-562 leukemia = system: K-562 leukemia
HL-60(TB) leukemia = system: HL-60(TB) leukemia
SK-MEL-5 melanoma = system: SK-MEL-5 melanoma
BT-549 breast = system: BT-549 breast
SK-MEL-28 melanoma = system: SK-MEL-28 melanoma
COLO 205 colon = system: COLO 205 colon
LOX IMVI melanoma = system: LOX IMVI melanoma
RXF 393 renal = system: RXF 393 renal
DU-145 prostate = system: DU-145 prostate
OVCAR-5 ovarian = system: OVCAR-5 ovarian
CAKI-1 renal = system: CAKI-1 renal
SF-539 CNS = system: SF-539 CNS
SNB-19 CNS = system: SNB-19 CNS
UACC-257 melanoma = system: UACC-257 melanoma
MOLT-4 leukemia = system: MOLT-4 leukemia
U251 CNS = system: U251 CNS
MDA-N = system: MDA-N
NCI/ADR-RES ovarian = system: NCI/ADR-RES ovarian
TK-10 renal = system: TK-10 renal
SK-OV-3 ovarian = system: SK-OV-3 ovarian
T-47D breast = system: T-47D breast
HOP-92 NSCLC = system: HOP-92 NSCLC
M14 melanoma = system: M14 melanoma
HCT-15 colon = system: HCT-15 colon
NCI-H460 lung = system: NCI-H460 lung
A549 NSCLC = system: A549 NSCLC
786-0 renal = system: 786-0 renal
SN12C renal = system: SN12C renal
NCI-H23 lung = system: NCI-H23 lung
OVCAR-4 ovarian = system: OVCAR-4 ovarian
SF-268 CNS = system: SF-268 CNS
ACHN renal = system: ACHN renal
HS 578T breast = system: HS 578T breast
NCI-H522 lung = system: NCI-H522 lung
PC-3 prostate = system: PC-3 prostate
EKVX NSCLC = system: EKVX NSCLC
HCC-2998 colon = system: HCC-2998 colon
UACC-62 melanoma = system: UACC-62 melanoma
HT29 colon = system: HT29 colon
OVCAR-3 ovarian = system: OVCAR-3 ovarian
UO-31 renal = system: UO-31 renal
SR leukemia = system: SR leukemia
CCRF-CEM leukemia = system: CCRF-CEM leukemia
RPMI-8226 leukemia = system: RPMI-8226 leukemia
SF-295 CNS = system: SF-295 CNS

Compound: O=C(/C=C/NC(=O)OCc1ccccc1)OCc1ccccc1
- TGI (HCT-116 colon): > 100 µM
- TGI (MCF7 breast): > 100 µM
- TGI (HOP-62 NSCLC): > 100 µM
- TGI (MDA-MB-231 breast): > 100 µM
- TGI (KM12 colon): > 100 µM
- TGI (OVCAR-8 ovarian): > 100 µM
- TGI (SNB-75 CNS): > 100 µM
- TGI (SW-620 colon): > 100 µM
- TGI (MALME-3M melanoma): > 100 µM
- TGI (NCI-H226 lung): > 100 µM
- TGI (A498 renal): > 100 µM
- TGI (MDA-MB-435): > 100 µM
- TGI (IGROV1 ovarian): > 100 µM
- TGI (SK-MEL-2 melanoma): > 100 µM
- TGI (K-562 leukemia): > 100 µM
- TGI (HL-60(TB) leukemia): > 100 µM
- TGI (SK-MEL-5 melanoma): > 100 µM
- TGI (BT-549 breast): > 100 µM
- TGI (SK-MEL-28 melanoma): > 100 µM
- TGI (COLO 205 colon): > 100 µM
- TGI (LOX IMVI melanoma): > 100 µM
- TGI (RXF 393 renal): > 100 µM
- TGI (DU-145 prostate): > 100 µM
- TGI (OVCAR-5 ovarian): > 100 µM
- TGI (CAKI-1 renal): > 100 µM
- TGI (SF-539 CNS): > 100 µM
- TGI (SNB-19 CNS): > 100 µM
- TGI (UACC-257 melanoma): > 100 µM
- TGI (MOLT-4 leukemia): > 100 µM
- TGI (U251 CNS): > 100 µM
- TGI (MDA-N): > 100 µM
- TGI (NCI/ADR-RES ovarian): > 100 µM
- TGI (TK-10 renal): > 100 µM
- TGI (SK-OV-3 ovarian): > 100 µM
- TGI (T-47D breast): > 100 µM
- TGI (HOP-92 NSCLC): > 100 µM
- TGI (M14 melanoma): > 100 µM
- TGI (HCT-15 colon): > 100 µM
- TGI (NCI-H460 lung): > 100 µM
- TGI (A549 NSCLC): > 100 µM
- TGI (786-0 renal): > 100 µM
- TGI (SN12C renal): > 100 µM
- TGI (NCI-H23 lung): > 100 µM
- TGI (OVCAR-4 ovarian): > 100 µM
- TGI (SF-268 CNS): > 100 µM
- TGI (ACHN renal): > 100 µM
- TGI (HS 578T breast): > 100 µM
- TGI (NCI-H522 lung): > 100 µM
- TGI (PC-3 prostate): > 100 µM
- TGI (EKVX NSCLC): > 100 µM
- TGI (HCC-2998 colon): > 100 µM
- TGI (UACC-62 melanoma): > 100 µM
- TGI (HT29 colon): > 100 µM
- TGI (OVCAR-3 ovarian): > 100 µM
- TGI (UO-31 renal): > 100 µM
- TGI (SR leukemia): > 100 µM
- TGI (CCRF-CEM leukemia): > 100 µM
- TGI (RPMI-8226 leukemia): > 100 µM
- TGI (SF-295 CNS): > 100 µM

Compound: COc1cc([C@@H]2c3cc4c(cc3[C@@H](Nc3ccc(N=Cc5ccc(C(=O)O[C@@H](C(=O)O[C@H]6C[C@@]7(O)[C@@H](OC(=O)c8ccccc8)[C@@H]8[C@]9(OC(C)=O)CO[C@@H]9C[C@H](O)[C@@]8(C)C(=O)[C@H](OC(C)=O)C(=C6C)C7(C)C)[C@@H](NC(=O)c6ccccc6)c6ccccc6)cc5)cc3)[C@H]3COC(=O)[C@H]23)OCO4)cc(OC)c1O
- TGI (HCT-116 colon): > 50 µM
- TGI (MCF7 breast): > 50 µM
- TGI (HOP-62 NSCLC): > 40.2 µM
- TGI (MDA-MB-231 breast): > 50 µM
- TGI (KM12 colon): > 50 µM
- TGI (OVCAR-8 ovarian): > 50 µM
- TGI (SNB-75 CNS): 37.2 µM
- TGI (SW-620 colon): > 50 µM
- TGI (MALME-3M melanoma): > 50 µM
- TGI (NCI-H226 lung): 29.3 µM
- TGI (A498 renal): 4.48 µM
- TGI (MDA-MB-435): > 50 µM
- TGI (IGROV1 ovarian): > 50 µM
- TGI (SK-MEL-2 melanoma): > 50 µM
- TGI (K-562 leukemia): > 22.5 µM
- TGI (HL-60(TB) leukemia): 9.73 µM
- TGI (SK-MEL-5 melanoma): > 42.9 µM
- TGI (BT-549 breast): > 50 µM
- TGI (SK-MEL-28 melanoma): > 50 µM
- TGI (COLO 205 colon): > 50 µM
- TGI (LOX IMVI melanoma): > 50 µM
- TGI (RXF 393 renal): > 50 µM
- TGI (DU-145 prostate): 17.2 µM
- TGI (OVCAR-5 ovarian): > 39.1 µM
- TGI (CAKI-1 renal): 14.4 µM
- TGI (SF-539 CNS): > 47.3 µM
- TGI (SNB-19 CNS): > 50 µM
- TGI (UACC-257 melanoma): > 50 µM
- TGI (MOLT-4 leukemia): 10.5 µM
- TGI (U251 CNS): 35.4 µM
- TGI (MDA-N): > 50 µM
- TGI (NCI/ADR-RES ovarian): > 50 µM
- TGI (TK-10 renal): > 50 µM
- TGI (SK-OV-3 ovarian): > 35.8 µM
- TGI (T-47D breast): > 50 µM
- TGI (HOP-92 NSCLC): > 50 µM
- TGI (M14 melanoma): > 50 µM
- TGI (HCT-15 colon): > 50 µM
- TGI (NCI-H460 lung): 15.9 µM
- TGI (A549 NSCLC): > 50 µM
- TGI (786-0 renal): 9.53 µM
- TGI (SN12C renal): 17.2 µM
- TGI (NCI-H23 lung): > 38.9 µM
- TGI (OVCAR-4 ovarian): > 50 µM
- TGI (SF-268 CNS): > 45.6 µM
- TGI (ACHN renal): 10.5 µM
- TGI (HS 578T breast): > 50 µM
- TGI (NCI-H522 lung): > 50 µM
- TGI (PC-3 prostate): > 50 µM
- TGI (EKVX NSCLC): > 50 µM
- TGI (HCC-2998 colon): > 50 µM
- TGI (UACC-62 melanoma): > 50 µM
- TGI (HT29 colon): > 50 µM
- TGI (OVCAR-3 ovarian): > 50 µM
- TGI (SR leukemia): 0.35 µM
- TGI (CCRF-CEM leukemia): 11 µM
- TGI (RPMI-8226 leukemia): 28.2 µM
- TGI (SF-295 CNS): > 27.7 µM
